Measurements: a melting point compilation (Tetko et al.; mined from patent text by program, amines drawn as free bases though some values may be those of a salt)

melting point | SMILES
198 to 200 °C | Cc1nn2ccccc2c1C(=O)C1=CN(C(=O)Nc2ccc(Cl)cc2)CCC1
110 to 114 °C | Clc1ccc2c(-n3cc(Cl)cn3)ccnc2c1
170 °C | CNS(=O)(=O)Cc1ccc(NC(=O)C(F)(F)F)c(Br)c1
184 to 185 °C | COc1cccnc1C(c1cc(F)ccc1F)S(=O)(=O)c1ccc(Cl)cc1 (stereo unspecified)
249 °C | CC(C)(C)OC(=O)N1CCC(Nc2nc3ccccc3[nH]2)CC1
155 to 156 °C | COc1ccc(Cl)c(Oc2c(CCl)nc(N3CCOCC3)nc2NS(=O)(=O)c2ccc(C(C)(C)C)cc2)c1
72 to 74 °C | CCOC(=O)CCCCCCCCCCNC(=O)c1cc(O)ccc1O
133 to 136 °C | CNc1nc2ccccc2cc1N
121 to 122 °C | CC(=O)NCCC1CCc2ccn3ncc(C)c3c21 (stereo unspecified)
137 to 139 °C | Clc1ccc(-c2cc(C3CCN(Cc4ccccc4Cl)CC3)n[nH]2)cc1
265 to 268 °C | Cc1nc(-c2sc(-c3ccc(Cl)cc3)nc2C)sc1C(=O)O
69 °C | COC(=O)Cc1ccc(OCc2ccc3ccccc3n2)c(OC)c1
149 to 150 °C | C/C=C/Cn1c(Oc2cc(C)cc(C)c2)c(CC)c(=O)[nH]c1=O
126 to 127 °C | CCC1C(=O)N(CC)CCc2cc(Nc3ncc(Cl)c(N[C@@H]4CCCC[C@H]4NS(C)(=O)=O)n3)c(OC)cc21 (stereo partly specified)
101 to 103 °C | c1cnc2[nH]c(CCCN3CCOCC3)nc2c1
59 to 60 °C | CC(C)(O)C(CS(=O)(=O)c1ccccc1)C(F)(F)F (stereo unspecified)
208 to 210 °C | CCc1nc(OC)c(NC(=O)N2CCN(c3cccc(F)c3)CC2)cc1C(=O)NC(C)C(=O)Nc1cc(CO)cc(Nc2c3ccccc3nc3ccccc23)c1 (stereo unspecified)
122 to 124 °C | Cn1c(C(F)(F)F)cc(=O)n(-c2cc(OCC(C)(C)C)c(Cl)cc2F)c1=O
99 to 100 °C | CCC1CC(C)C(=O)C=C1c1ccc(OCC(=O)O)c(Cl)c1Cl (stereo unspecified)
162 to 164 °C | Cn1cc2c3c(ccc2n1)CCC3=O
128 to 132 °C | COC(=O)C(=CNC1CC1)C(=O)c1cc(F)c(Cl)cc1OC
178 to 180 °C | CC(C)(C)OC[C@@H]1NCCN(CC(=O)O)C1=O
190 to 191 °C | CC(C)(C)c1cc(-c2nn(C3(C)COC(=O)O3)c3ncccc23)cc(C(C)(C)C)c1O (stereo unspecified)

melting point | SMILES
89 to 92 °C | COc1cc2c(cc1OC)C(C)(CC(=O)O)OCC2 (stereo unspecified)
227 to 229 °C | COc1cc2c(cc1-c1cccnc1)-c1c(-c3cccs3)c3c(n1CC2)C(=O)N(C(C)C)CCNC3
162 to 164 °C | OCC(O)CNc1nc(-c2ccc(Cl)c(Cl)c2)nc2ccccc12 (stereo unspecified)
161 to 162 °C | COc1cc(/C=C2/C(=O)OC(=O)C2=C(C)C)cc(OC)c1
203 to 204 °C | COc1nc(N)c2c(OC)c(OC)cc(Cl)c2n1
200 to 202 °C | c1cc(COc2ccc3ccccc3c2)cc(-c2nnn[nH]2)c1
4.6 °C | CCCCCCCc1ccc(CCCCCCC)c(C#N)c1C#N
156 to 160 °C | C=C1c2ccccc2CC(=NO)c2ccccc21
185 to 186 °C | O=C(O)c1cc(-c2cccc(C(F)(F)F)c2)nc(C(F)(F)F)c1
97 to 97.5 °C | O=C1CC(=O)N(Cc2ccccc2)[C@H](Cc2ccccc2)C1
72.4 to 73.3 °C | CCC(C(=O)OC)[C@@H](C)O (stereo partly specified)
106 to 107 °C | O=C(CN1CCN(c2ccc(F)cc2)CC1)CN1CCN(c2ccc(F)cc2)CC1
197 °C | C=CC1CC2C3CCC4=CC(=O)CCC4=C3C(c3ccc(-c4ccc(OC)nc4)cc3)CC2(C)C1C(=O)C1CC1 (stereo unspecified)
258 °C | CCOC(=O)c1cn(C)c2ccc(C(=O)c3c(C)c(OC)c4ccccn34)cc2c1=O
220 °C | Cc1ccnc(N2CCN(CCc3c(-c4ccc(O)cc4)n4c5c(cccc35)CCC4)CC2)c1
220 to 221 °C | CNc1nc(C)c(-c2cn3ccc(C)cc3n2)s1
151 °C | Nc1ccc(C(=O)Nc2ccc(-c3ccc(C(=O)N4CCN5CCC4CC5)o3)cc2)cc1
204 to 206 °C | COc1cc(OC)c2c(=O)[nH]c(-c3cc(C)c(OCCOCc4ccccc4)c(C)c3)nc2n1
153 to 155 °C | OC(c1nc(-c2ccc(F)cc2)c(-c2ccc(F)cc2)[nH]1)(C(F)(F)F)C(F)(F)F
240 to 243 °C | Nc1ccc2c(c1N)Cc1ccccc1-2
83 to 85 °C | CON=Cc1cnnc2ccccc12
187 to 189 °C | CN(c1ccc(Cl)cc1)S(=O)(=O)c1cccc(NC(=O)c2ccc(Br)cc2)c1
285 to 286 °C | Cc1cc(C)cc(-c2nc(NC(=O)c3ccccc3)sc2-c2ccncc2)c1

melting point | SMILES
75 to 76 °C | COC(=O)Nc1ccc(OC(=O)OC)cc1
160 to 161 °C | COc1cc(C(=O)N2CCN(C(=O)OC(C)(C)C)C(C=O)C2)cc(OC)c1OC (stereo unspecified)
57 to 58 °C | CCCCCCCCCCCCCCCCCCOc1cc(OCCCBr)cc(C(=O)OCc2ccccc2)c1
109 to 111 °C | C=Cc1cn(-c2c(Cl)cc(C(F)(F)F)cc2Cl)nn1
225 to 228 °C | Nc1nc(-c2ccccc2)c(-c2ccc(=O)n(Cc3ccccc3)n2)s1
267 to 268 °C | COc1ccc(C2=C(C(=O)O)N(Cc3ccc4c(c3)OCO4)S(=O)(=O)c3ccccc32)cc1OC
168 to 170 °C | Cc1ccc(OC(=O)C=Cc2ccc([N+](=O)[O-])cc2)cc1
223 to 224 °C | O=C1CN2Cc3cc(OCCCC(=O)N(CCO)CC4CCCCC4)ccc3N=C2N1
> 230 °C | CSc1nn2c(N)cc(C)nc2c1S(=O)(=O)c1ccc(C)cc1
225 to 232 °C | Cn1c2c(c3ccccc31)C(=O)C(=Cc1c[nH]cn1)CC2
86 to 87 °C | CCCc1c(CC)[nH]c(C(=O)OCC)c1C
274 to 276 °C | CN1C(=O)C(=Cc2cc(O)c(O)c([N+](=O)[O-])c2)SC1=S
90 to 92 °C | CCOc1nc(NCc2ccco2)nc(Nc2ccccc2-c2cccnc2)n1
165 to 167 °C | O=C(Nc1cccc2c3c(oc12)CCC=C3)c1c(Cl)cccc1Cl
139 to 141 °C | CC(C)Oc1ccc(CCCOc2cc(CCC(=O)O)n(-c3ccccc3)n2)c(OCc2ccc(Cl)cc2Cl)c1
117 to 118 °C | CC(C(=O)OCc1ccc([N+](=O)[O-])cc1)N(C(=O)OC(C)(C)C)C1CC1 (stereo unspecified)
110 to 112 °C | Cc1ccccc1-c1nsc(SN)n1
69 to 74 °C | CCCCCCCCNC(=N)NC#N
277 to 278 °C | CCCn1c(=O)c2[nH]c(/C=C/c3cc(Br)c(OC)c(OC)c3)nc2n(CCC)c1=O
98 to 100 °C | CS(=O)(=O)c1ccc(-c2oc3ccccc3c(=O)c2-c2ccc(F)cc2)cc1
269 to 270 °C | Cc1ccc(-c2[nH]c(-c3ccccc3)nc2C(=O)Nc2nc3ccccc3s2)cc1

SMILES | melting point
Cc1nnc2ccc(-c3cccc(C(F)(F)F)c3)nn12 | 193 to 194 °C
CN1Cc2c(C#CC(C)(C)C)ncn2-c2ccccc2C1=O | 148 to 150 °C
CN(c1ccc(OC(F)(F)F)cc1)C1CCN(C[C@@]2(C)Cn3cc([N+](=O)[O-])nc3O2)CC1 | 133 to 134 °C
CC1C(=O)N(c2ccc([N+](=O)[O-])cc2)C(=S)N1c1ccc(Cc2ccccc2)cc1 (stereo unspecified) | 200 °C
